Counter-ions that a name gives are not always drawn.
Tests used:
[1] = solubility in water of 3-IPA salts; assay type: physicochemical
[2] = system: cultured neurons; details: background statement; cited from earlier work

O=C(O)CCc1c[nH]c2ccccc12 [3-IPA calcium, calcium salt of 3-(3-indolyl)propionic acid]
solubility in water ([1]; compared to the calcium salts of other acids present in the reaction mixture (e.g., acrylic acid or acetic acid)): much less soluble in water
solubility ([1]; compared to the free acid form of 3-IPA): low solubility

O=C(O)CCc1c[nH]c2ccccc12 [3-IPA, 3-(3-indolyl)propionic acid]
protection from toxicity of the Aβ peptide [2]: protect cultured neurons from the toxicity of the Aβ peptide

Source: patent US20080207731A1, “3-(3-INDOLYL) PROPIONIC ACID CALCIUM SALT AND METHOD OF MAKING 3-(3-INDOLYL) PROPIONIC ACID FREE ACID THEREFROM” (Intellect Neurosciences, Inc., priority 2006, published 2008)
